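96-well plates; 48 h exposure; 5 concentrations. Endpoints by linear interpolation between flanking doses. Not reached: highest tested concentration assigned. GI50 = concentration required for 50% inhibition of growth. Definition used: TGI = concentration required for complete inhibition of growth.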

Test systems include RPMI-8226 leukemia; HS 578T breast; NCI-H460 lung; HOP-62 NSCLC; MDA-MB-231 breast; UACC-257 melanoma; MDA-MB-435; LOX IMVI melanoma; HCT-15 colon; ACHN renal.
Holding throughout (assay): NCI-60 cell line screen, 48 h

Consider `COC(=O)C1C(C(=O)O)C2(c3ccccc3)C(=O)C1(c1ccccc1)C(c1ccc(OC)cc1)=C2c1ccc(OC)cc1` (centres undefined), for which the GI50 with RPMI-8226 leukemia was 18.2 µM; with HS 578T breast it was 22.1 µM; in the assay with NCI-H460 lung it was 13.7 µM; in the assay on HOP-62 NSCLC, 20.4 µM; in the assay with MDA-MB-231 breast it was 24 µM; in the assay with UACC-257 melanoma, 19.1 µM. For the same compound, the GI50 in the assay on MDA-MB-435 was 28.8 µM; in the assay with LOX IMVI melanoma, 33.2 µM; in the assay on HCT-15 colon it was 38.6 µM; with ACHN renal, 36.6 µM. The TGI came to 48.5 µM in the assay with RPMI-8226 leukemia; 72.3 µM in the assay on HS 578T breast; 31 µM in the assay with NCI-H460 lung; 47.5 µM in the assay on HOP-62 NSCLC; 54.5 µM in the assay on MDA-MB-231 breast; 43.9 µM in the assay with UACC-257 melanoma. The TGI is 60.7 µM in the assay with MDA-MB-435, greater than 100 µM with LOX IMVI melanoma, greater than 100 µM with HCT-15 colon and greater than 100 µM in the assay with ACHN renal.

On to `CC(C)C[C@H](NC(=O)[C@@H](Cc1ccccc1)n1ccc(Nc2ccccc2)cc1=O)B(O)O`, for which the GI50 in the assay on RPMI-8226 leukemia was 0.154 µM; in the assay on HS 578T breast, 0.361 µM; in the assay on NCI-H460 lung, 0.836 µM; in the assay on HOP-62 NSCLC it was 1.74 µM; with MDA-MB-231 breast, 0.595 µM; with UACC-257 melanoma, 0.404 µM. For the same compound, the GI50 in the assay on MDA-MB-435 was 0.155 µM; with LOX IMVI melanoma it was 0.151 µM; in the assay on HCT-15 colon it was 1.11 µM; in the assay with ACHN renal it was 0.358 µM. In addition, the TGI with RPMI-8226 leukemia stood at 3.87 µM; with HS 578T breast, 7.06 µM; with NCI-H460 lung, 8.29 µM; with HOP-62 NSCLC, 7.04 µM; in the assay on MDA-MB-231 breast, 4.37 µM; with UACC-257 melanoma, 2.48 µM. The TGI with MDA-MB-435 is 0.34 µM; in the assay on LOX IMVI melanoma, 0.409 µM; with HCT-15 colon, 17 µM; in the assay on ACHN renal, greater than 100 µM.

For `CC(C)[C@@]12C[C@@H](OC(=O)COC(=O)c3ccccc3)[C@@](C)(O1)[C@@H]1CC[C@@H](C)[C@H]1[C@@H]2OC(=O)/C=C/c1ccccc1`, the GI50 in the assay with RPMI-8226 leukemia was 82.1 µM; with HS 578T breast, 0.0135 µM; with NCI-H460 lung, greater than 100 µM; in the assay on HOP-62 NSCLC, greater than 100 µM; with MDA-MB-231 breast it was greater than 100 µM; in the assay on UACC-257 melanoma, greater than 100 µM. Further, the GI50 in the assay with MDA-MB-435 was greater than 100 µM; in the assay with LOX IMVI melanoma, greater than 63.4 µM; with HCT-15 colon, greater than 89 µM; with ACHN renal, 0.0469 µM. The TGI was greater than 100 µM in the assay with RPMI-8226 leukemia; 0.0701 µM with HS 578T breast; greater than 100 µM in the assay on NCI-H460 lung; greater than 100 µM in the assay with HOP-62 NSCLC; greater than 100 µM with MDA-MB-231 breast; greater than 100 µM with UACC-257 melanoma. Besides, the TGI in the assay with MDA-MB-435, in the assay on LOX IMVI melanoma and in the assay on HCT-15 colon was greater than 100 µM in each case.

`c1cc[n+](Cc2c3ccccc3cc3c2ccc2ccccc23)cc1`: the GI50 with RPMI-8226 leukemia is 2.31 µM; in the assay on HS 578T breast, 1.96 µM; in the assay on NCI-H460 lung it was 3.26 µM; in the assay with HOP-62 NSCLC, 2.41 µM; in the assay with MDA-MB-231 breast, 6.08 µM; in the assay with UACC-257 melanoma, 2.34 µM. Besides, the GI50 was 3.29 µM in the assay with MDA-MB-435, 3.72 µM in the assay on LOX IMVI melanoma, greater than 100 µM with HCT-15 colon and greater than 100 µM in the assay on ACHN renal. The TGI with RPMI-8226 leukemia turned out to be 8.87 µM; with HS 578T breast, 8.65 µM; in the assay with NCI-H460 lung, 11.9 µM; in the assay on HOP-62 NSCLC, 11.7 µM; with MDA-MB-231 breast, 20 µM; with UACC-257 melanoma, 5.48 µM. In addition, the TGI in the assay on MDA-MB-435 is 12.2 µM; with LOX IMVI melanoma, 15.8 µM; with HCT-15 colon, greater than 100 µM; in the assay with ACHN renal, greater than 100 µM.

Regarding `Cn1c2c(c3ccccc31)CCN1C[C@@H]3CCCC[C@H]3C[C@@H]21`, the GI50 with RPMI-8226 leukemia is 3.06 µM; in the assay on HS 578T breast, 4.51 µM; in the assay with NCI-H460 lung, 3.34 µM; in the assay on HOP-62 NSCLC, 3.32 µM; in the assay with MDA-MB-231 breast it was 2.88 µM; with UACC-257 melanoma, 8.14 µM. Moreover, the GI50 in the assay with MDA-MB-435 was 1.56 µM; in the assay on LOX IMVI melanoma, 2.99 µM; in the assay with HCT-15 colon, 2.55 µM; in the assay with ACHN renal, 4.32 µM. The TGI in the assay on RPMI-8226 leukemia was greater than 26.3 µM; in the assay with HS 578T breast, greater than 100 µM; in the assay on NCI-H460 lung it was greater than 36.1 µM; with HOP-62 NSCLC it was greater than 36.2 µM; in the assay with MDA-MB-231 breast, 8.66 µM; in the assay on UACC-257 melanoma, greater than 100 µM. Also, the TGI with MDA-MB-435 is greater than 20.6 µM; with LOX IMVI melanoma, greater than 37.3 µM; in the assay on HCT-15 colon, greater than 100 µM; in the assay with ACHN renal, greater than 100 µM.

As for `COc1ccc(-c2cc(=O)c3c(OC)c4ccoc4c(/C=C/C=O)c3o2)cc1`, the GI50 with RPMI-8226 leukemia is 1.37 µM; in the assay on HS 578T breast it was 10.4 µM; with NCI-H460 lung it was 4.7 µM; with HOP-62 NSCLC it was 2.98 µM; with MDA-MB-231 breast, 4.22 µM; in the assay on UACC-257 melanoma it was 3.63 µM. Further, the GI50 is 2.81 µM in the assay on MDA-MB-435, 1.08 µM in the assay with LOX IMVI melanoma, 1.73 µM with HCT-15 colon and 19.3 µM in the assay on ACHN renal. Besides, the TGI in the assay on RPMI-8226 leukemia was 5.29 µM; in the assay with HS 578T breast, greater than 100 µM; with NCI-H460 lung, 39.4 µM; in the assay with HOP-62 NSCLC, 11.1 µM; in the assay with MDA-MB-231 breast it was 85.3 µM; in the assay on UACC-257 melanoma it was 14.2 µM. The TGI is 32.3 µM in the assay with MDA-MB-435, 2.34 µM with LOX IMVI melanoma, 5.92 µM in the assay on HCT-15 colon and greater than 100 µM in the assay on ACHN renal.

As for `C[n+]1cccc(NC(=O)c2ccc3ccc4ccc(C(=O)Nc5ccc[n+](C)c5)nc4c3n2)c1`, the GI50 in the assay on RPMI-8226 leukemia was 2.99 µM; with HS 578T breast it was 4.51 µM; in the assay with NCI-H460 lung, 0.149 µM; in the assay on HOP-62 NSCLC it was 1.83 µM; with MDA-MB-231 breast, 2.41 µM; with UACC-257 melanoma, greater than 100 µM. The GI50 in the assay with MDA-MB-435 is 6.2 µM; in the assay on LOX IMVI melanoma, 5.6 µM; in the assay with HCT-15 colon it was 3.37 µM; in the assay on ACHN renal, 4.75 µM. The TGI is greater than 100 µM in the assay on RPMI-8226 leukemia; greater than 68.6 µM in the assay on HS 578T breast; 3.42 µM with NCI-H460 lung; 97.5 µM in the assay on HOP-62 NSCLC; greater than 52.4 µM with MDA-MB-231 breast; greater than 100 µM in the assay with UACC-257 melanoma. The TGI in the assay on MDA-MB-435, in the assay on LOX IMVI melanoma, with HCT-15 colon and in the assay on ACHN renal was greater than 100 µM in each case.

For the compound `CC(=O)OC1C(O)C(C)OC(OC2C(OC(=O)C3CCC4C(C3)OC3(CC(OC(=O)/C=C/c5ccccc5)C(C)CO3)C43CO3)OC(C)C(O)C2OC(C)=O)C1O` (centres undefined), the TGI in the assay on RPMI-8226 leukemia worked out at 0.0945 µM; in the assay on HS 578T breast, 0.00669 µM; in the assay with NCI-H460 lung it was 0.141 µM; with HOP-62 NSCLC it was 0.0519 µM; in the assay with MDA-MB-231 breast it was 0.101 µM; in the assay on UACC-257 melanoma, 0.0811 µM. For the same compound, the TGI in the assay on MDA-MB-435 stood at 0.00649 µM; with LOX IMVI melanoma, 0.0213 µM; in the assay on HCT-15 colon, 1.82 µM; in the assay on ACHN renal it was 0.648 µM.
